Assay results as given in patent US11524938B2, “Aromatic sulfonamide derivatives” (Bayer Pharma Aktiengesellschaft, priority 2016, dated 2022).
Several values for one entry are separate records, joined by “and”; a condition that tells them apart may be missing. Identical values can stand only once.

Key:
endogenous P2X4 channels = target: T1, endogenous P2X4 channels (Homo sapiens, UniProt Q99571); assay: Human Monocyte P2X4 Assay (FLIPR); assay type: cell-based; conditions: primary human monocytes, 3 μM BzATP, one value per donor
T1 construct: measure calcium influx through endogenous P2X4 channels into primary human monocytes
T1 sequence (Q99571 1-388): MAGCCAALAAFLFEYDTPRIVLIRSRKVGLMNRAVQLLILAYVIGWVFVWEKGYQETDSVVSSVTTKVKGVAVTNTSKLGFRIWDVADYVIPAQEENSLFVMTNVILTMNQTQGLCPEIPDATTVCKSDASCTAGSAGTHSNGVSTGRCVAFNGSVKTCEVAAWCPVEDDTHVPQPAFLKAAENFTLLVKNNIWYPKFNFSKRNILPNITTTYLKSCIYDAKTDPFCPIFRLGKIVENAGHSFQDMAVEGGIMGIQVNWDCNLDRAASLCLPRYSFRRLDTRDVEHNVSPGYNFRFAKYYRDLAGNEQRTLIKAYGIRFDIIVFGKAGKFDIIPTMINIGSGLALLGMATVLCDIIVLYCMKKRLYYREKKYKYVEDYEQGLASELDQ
Procedure: The principle of the assay is to measure calcium influx through endogenous P2X4 channels into primary human monocytes, following activation by 2′,3′-O-(4-benzoyl-benzoyl)-ATP (Bz-ATP). Intracellular calcium concentration changes were measured with a Flipr® (Molecular Devices) device using a calcium sensitive dye (Fluo-8). In primary monocytes P2X4 is located at the lysosome membrane, therefore exocytosis has to be triggered to expose P2X4 at the cellular membrane.
Human peripheral blood mononuclear cells (PBMCs) from anticoagulated blood (blood cells, BC) were isolated via density gradient centrifugation. Whole blood was diluted 1:3 with PBS. Samples of 30 mL were layered carefully on top of 15 mL Biocoll (BIOCHROM) in 50 mL centrifuge tubes (Falcon). Tubes were centrifuged at 914×g for 25 min at RT without brake. The PBMC layer was removed with a 10 mL pipette and transferred into tubes with ice-cold PBS in a total volume of 50 mL. Cells were washed twice by pelleting at 300×g at 4° C., for 10 min and for 5 min respectively. PBMCs were re-suspended in 10 mL medium (X-vivo, Biozym Scientific) and counted in a Neubauer chamber.
Monocytes were isolated by negative selection using the Monocyte isolation kit II from Miltenyi (#130-091-153) according to the instructions. Isolation should be done fast and cells and solutions should be kept on ice at any time. PBMCs in batches of 10 exp8 cells were pelleted (300×g, 10 min) and re-suspended with 300 μL MACS buffer in a 50 mL Falcon tube. FcR Blocking reagent (100 μl) and Biotin-Ab (100 μl) were added, mixed and incubated on ice for 10 min. MACS buffer (300 μL) and anti-Biotin Micro-beads (100 μL) were added, mixed and incubated on ice for 15 min. Cells were washed by pelleting (300×g for 10 min) and re-suspended in 500 μL MACS buffer. For each batch one separation column was placed in the MACS separator and rinsed with 3 mL MACS buffer. The cell suspension was added to the column, followed by 3×3 mL MACS buffer for washing, and the eluent containing the monocytes was collected. Cells were pelleted (300×g for 10 min), re-suspended in X-vivo medium and counted. Monocytes were seeded into fibronectin-coated micro-plates (384-well, black, flat transparent bottom; Corning #3848) at a density of 30,000 cells/well in 50 μL, and cultivated over night (37° C., 5% CO2).
Test substances were dissolved in 100% DMSO at a stock concentration of 10 mM and stored at −20° C. in aliquots. Serial dilutions (2×) were prepared in DMSO and diluted 500× with assay buffer to generate the antagonist plate. In the Flipr measurement, 10 μL per well were transferred (4× dilution) and a final top concentrations of 5 μM and 0.05% DMSO were obtained in the assay. Agonist BzATP was stored at 10 mM in aliquots and diluted to an intermediate concentration of 15 μM to generate the agonist plate. In the Flipr measurement, 10 μL per well were transferred (5× dilution) so that a final assay concentration of 3 μM was obtained.
For the experiment, the medium of the cell plate was discarded manually and 70 μL/well loading buffer was added and incubated for 1 h (37° C., 5% CO2). Loading buffer contained HBSS (w/o calcium/magnesium), 10 mM Hepes pH 7.4, 5 μM Fluo-8 (AM) (Tebu-bio) and 50 mM methylamine (Sigma) to trigger exocytosis. Loading buffer was discarded manually and 30 μL/well low-calcium assay buffer (5 mM KCl, 145 mM NaCl, 0.5 mM CaCl2, 13 mM glucose, 10 mM Hepes pH 7.4) was added. The antagonist plate was transferred (10 μL/well) and after 15 min at RT the agonist plate (10 μL/well) was transferred.
Agonist addition was recorded for 240 seconds after a 10 second baseline. For analysis, a baseline correction was applied, and the maximum of the curve was extracted. Data were normalized towards 0% inhibition (signal at 3 μM BzATP) and 100% inhibition (absence of BzATP stimulation) and fitted with a four-parameter sigmoidal inhibition curve using Prism GraphPad to obtain IC50 values.

C57BL/6 mice = assay: CFA Inflammation Model in Mice with Pain Behaviour Read Out; assay type: in vivo, mouse; conditions: oral 0.3, 1, 3 mg/kg, day 2 post-CFA, 1 h after treatment, vs vehicle
Procedure: Wild type female C57BL/6 mice (Taconic) received intraplantar injection of complete Freund's adjuvant (CFA) (30 μL, 1 mg/mL, Sigma) into the left hind paw under isoflurane anesthesia. Animals were administered orally with example 326 (0.3, 1, and 3 mg/kg, n=10/group) on day 2 post-CFA injection. Spontaneous pain-related behavior in freely moving animals was assessed using the automated dynamic weight bearing device (DWB, Bioseb, France) one hour after compound treatment according to published and validated protocols (Robinson et al., 2012; Tetreault et al., 2011; Gruen et al. 2014). For behavioral testing, the animal was placed inside a Plexiglas chamber in which the exerted pressure on the floor was measured. The animals were allowed to move freely within the apparatus for 5 min and subsequently pain behavior is recorded for a test period of another 5 min. The relative weight distribution is calculated by determining the ratio of the weight put on naïve (contralateral) vs. that put on the intraplantar CFA treated (ipsilateral) paws.
FIG. 3 as nonbinding explanatory example of compounds according to the invention represents the ratio of weight distribution in percent (y-axis) of mice orally treated with example 326 or vehicle 1 hour prior to weight distribution measurement. Each symbol represents the relative weight distribution for one mouse. […]

Row | Human P2X4 Monocytes (FLIPR Assay) Efficacy for different donors (endogenous P2X4 channels) | SMILES | pain behavior (relative weight distribution, dynamic weight bearing) (C57BL/6 mice)
1 | 81% and 78% | N#Cc1cnn(-c2ccc(NC(=O)Cc3ccccc3Cl)cc2S(N)(=O)=O)c1 [Example 39, 2-(2-Chlorophenyl)-N-[4-(4-cyano-1H-pyrazol-1-yl)-3-sulfamoylphenyl]acetamide] | –
2 | – | NS(=O)(=O)c1cc(NC(=O)Cc2ccccc2Cl)ccc1-c1cnn(C(F)F)c1 [Example 326, 2-(2-Chlorophenyl)-N-{4-[1-(difluoromethyl)-1H-pyrazol-4-yl]-3-sulfamoylphenyl}acetamide] | significantly reduced pain behavior
